Test results: US5250554A, “Benzimidazole derivatives useful as angiotensin II inhibitors” (Takeda Chemical Industries, Ltd., priority 1989, dated 1993)
Counter-ions that a name gives are not always drawn. Like-named read-outs stand apart in the source and are kept apart here.

Key:
pressor action of A-II = assay: Inhibitory effect on pressor action of A-II (oral drug, i.v. A-II 100 ng/kg); assay type: in vivo, Jcl:SD rats (9 week old, male); conditions: rats, A-II 100 ng/kg i.v.; for inhibition in vivo at 3 mg/kg / inhibition in vivo at 30 mg/kg: Rattus norvegicus, po; for inhibition in vivo at 3 mg/kg: read-out: Pressor response to A II (p.o.), 3 mg/kg (percent inhibition); for inhibition in vivo at 30 mg/kg: read-out: Pressor response to A II (p.o.), 30 mg/kg (percent inhibition)
Description: Inhibitory effect of the compound of this invention on pressor action of A-II
Jcl:SD rats (9 week old, male) were used. On the day prior to that of the experiment, these animals were applied with cannulation into the femoral artery and vein under anesthesia with pentobarbital Na. The animals were fasted but allowed free access to drinking water until the experiment was started. On the day of conducting the experiment, the artery cannula was connected with a blood-pressure transducer, and the average blood pressure was recorded by means of polygraph. […] The drugs were orally administered, and then, at each point of the measurement, A-II was administered intravenously, and the pressor action was similarly measured. By comparing the pressor action before and after administration of the drug, the percent inhibition by the drug on A-II-induced pressor action was evaluated.

A-II receptor = biological target: T1, A-II receptor (Bos taurus, UniProt P25104); assay: Inhibition of binding of angiotensin-II to angiotensin receptor (radioreceptor assay, 125I-A-II); set-up: species or system bovine (membrane fraction of bovine adrenal cortex); conditions: for inhibition at 10 µM: read-out: Radioreceptor assay, inhibition of A-II binding, 1 × 10^-5 M; for inhibition at 1 µM: read-out: Radioreceptor assay, inhibition of A-II binding, 1 × 10^-6 M
T1 construct: An A-II receptor was prepared from the membrane fraction of bovine adrenal cortex; from tissue; host or cells: bovine adrenal cortex, membrane fraction
T1 sequence (P25104 1-359): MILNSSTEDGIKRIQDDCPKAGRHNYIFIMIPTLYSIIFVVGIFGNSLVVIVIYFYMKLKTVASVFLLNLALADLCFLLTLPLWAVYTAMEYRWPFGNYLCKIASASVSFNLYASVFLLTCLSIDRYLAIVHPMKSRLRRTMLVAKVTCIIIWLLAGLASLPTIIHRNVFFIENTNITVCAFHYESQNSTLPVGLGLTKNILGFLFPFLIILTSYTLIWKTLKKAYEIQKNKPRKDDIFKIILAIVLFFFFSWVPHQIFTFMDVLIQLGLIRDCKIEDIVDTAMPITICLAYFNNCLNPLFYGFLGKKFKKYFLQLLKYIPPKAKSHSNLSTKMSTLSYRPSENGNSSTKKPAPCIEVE
Description: Inhibition of binding of angiotensin-II to angiotensin receptor
An A-II receptor was prepared from the membrane fraction of bovine adrenal cortex.

[1] = 1 × 10^-5 M, bovine adrenal cortex membrane, 125I-A-II, 1 h room temperature
[2] = 1 × 10^-6 M, bovine adrenal cortex membrane, 125I-A-II, 1 h room temperature

Row | SMILES | inhibition at 10 µM (A-II receptor; [1]) [%] | inhibition at 1 µM (A-II receptor; [2]) [%] | Radioreceptor assay, inhibition of A-II binding, 1 × 10^-5 M (A-II receptor; [1]) | Radioreceptor assay, inhibition of A-II binding, 1 × 10^-6 M (A-II receptor; [2]) | inhibition in vivo at 3 mg/kg (pressor action of A-II; 3 mg/kg p.o.) [%] | inhibition in vivo at 30 mg/kg (pressor action of A-II; 30 mg/kg p.o.) [%] | inhibition at 10 µM (A-II receptor) [%] | inhibition at 1 µM (A-II receptor) [%] | Pressor response to A II (p.o.), 3 mg/kg (percent inhibition) (pressor action of A-II; 3 mg/kg p.o.) | Pressor response to A II (p.o.), 30 mg/kg (percent inhibition) (pressor action of A-II; 30 mg/kg p.o.)
1 | CCCCc1nc2ccccc2n1Cc1ccc(-c2ccccc2-c2nnn[nH]2)cc1 [Reference Example 17, 2-Butyl-1-[[2'-(1H-tetrazol-5-yl)biphenyl-4-yl]methyl]benzimidazole, reference compound] | 87 | 52 |  |  | < 30 | < 30 |  |  |  | 
2 | CCCCc1nc2c(C(=O)OC)cccc2n1Cc1ccc(-c2ccccc2-c2nn[nH]n2)cc1 [Reference Example 29, reference compound] | 61 | 6 |  |  |  | < 30 |  |  |  | 
3 | CCCCc1nc2cc(C)cc(C(=O)OC)c2n1Cc1ccc(-c2ccccc2-c2nn[nH]n2)cc1 [Working Example 9] | 92 | 45 |  |  | 50 to 70 |  |  |  |  | 
4 | CCCCc1nc2cc(C)cc(C(=O)O)c2n1Cc1ccc(-c2ccccc2-c2nn[nH]n2)cc1 [Working Example 10, 2-Butyl-5-methyl-1-[[2,-(1H-tetrazol-5-yl)biphenyl-4-yl]methyl]benzimidazole-7-carboxylic acid] | 90 | 40 |  |  | > 70 | > 70 |  |  |  | 
5 | CCCCc1nc2cccc(CC(=O)OCC)c2n1Cc1ccc(-c2ccccc2-c2nn[nH]n2)cc1 [Working Example 17, Ethyl [[2-butyl-1-[2'-(1H-tetrazol-5-Yl)biphenyl-4-yl]methyl]benzimidazol-7-yl]acetate] | 93 | 75 |  |  | 30 to 50 |  |  |  |  | 
6 | CCCCc1nc2cccc(COC)c2n1Cc1ccc(-c2ccccc2-c2nnn[nH]2)cc1 [Working Example 19, 2-butyl-7-methoxymethyl-1-[[2'-(1H-tetrazol-5-yl)biphenyl-4-yl]methyl]benzimidazole sodium salt] |  |  |  |  | 30 to 50 |  | 90 | 60 |  | 
7 | CCc1nc2cccc(C(=O)O)c2n1Cc1ccc(-c2ccccc2-c2nn[nH]n2)cc1 [Working Example 27] | 96 | 91 |  |  | > 70 | > 70 |  |  |  | 
8 | CCCCc1nc2cccc(C(=O)OCOC(=O)C(C)(C)C)c2n1Cc1ccc(-c2ccccc2-c2nn[nH]n2)cc1 [Working Example 36] | 95 | 86 |  |  | > 70 | > 70 |  |  |  | 
9 | CCCCc1nc2cccc(C(=O)OC(C)OC(=O)OC3CCCCC3)c2n1Cc1ccc(-c2ccccc2-c2nn[nH]n2)cc1 (stereo not shown) [Working Example 37] | 94 | 65 |  |  | > 70 | > 70 |  |  |  | 
10 | CCCCc1nc2cccc(C(=O)OCc3oc(=O)oc3C)c2n1Cc1ccc(-c2ccccc2-c2nn[nH]n2)cc1 [Working Example 39] | 97 | 83 |  |  | > 70 | > 70 |  |  |  | 
11 | CCCCc1nc2ccccc2n1Cc1ccc(-c2ccccc2C(=O)O)cc1 [compound 26, 2-[4-(2-Butylbenzimidazol-1-yl)methylphenyl]benzoic acid, reference compound] | 87 | 48 |  |  |  |  |  |  |  | 

Further lines, with some results ahead:

Row | inhibition at 10 µM (A-II receptor; [1]) [%] | inhibition at 1 µM (A-II receptor; [2]) [%] | Radioreceptor assay, inhibition of A-II binding, 1 × 10^-5 M (A-II receptor; [1]) | Radioreceptor assay, inhibition of A-II binding, 1 × 10^-6 M (A-II receptor; [2]) | SMILES | inhibition in vivo at 3 mg/kg (pressor action of A-II; 3 mg/kg p.o.) [%] | inhibition in vivo at 30 mg/kg (pressor action of A-II; 30 mg/kg p.o.) [%] | inhibition at 10 µM (A-II receptor) [%] | inhibition at 1 µM (A-II receptor) [%] | Pressor response to A II (p.o.), 3 mg/kg (percent inhibition) (pressor action of A-II; 3 mg/kg p.o.) | Pressor response to A II (p.o.), 30 mg/kg (percent inhibition) (pressor action of A-II; 30 mg/kg p.o.)
12 | 95 | 78 |  |  | CCCCc1nc2cccc(C(=O)O)c2n1Cc1ccc(-c2ccccc2-c2nnn[nH]2)cc1 [Working Example 1, 2-Butyl-1-[[2'-(1H-tetrazol-5-yl)biphenyl-4-yl]methyl]benzimidazole-7-carboxylic acid] | > 70 | > 70 |  |  |  | 
13 | 91 | 71 |  |  | CCCCc1nc2cccc(C(=O)O)c2n1Cc1ccc(-c2ccccc2-c2nn[nH]n2)cc1 [Working Example 4, 2-Butyl-1-[[2'-(1H-tetrazol-5-Yl)biphenyl-4-yl]methyl]benzimidazole-7-carboxylic acid 2-sodium salt] | > 70 | > 70 |  |  |  | 
14 | 95 | 79 |  |  | CCCc1nc2cccc(C(=O)O)c2n1Cc1ccc(-c2ccccc2-c2nn[nH]n2)cc1 [Working Example 7, 2-Propyl-1-[[2'-(1H-tetrazol-5-yl)bichenyl-4-yl]methyl]benzimidazole-7-carboxylic acid] | > 70 | > 70 |  |  |  | 
15 | 91 | 65 |  |  | CCCCc1nc2cc(Cl)cc(C(=O)OC)c2n1Cc1ccc(-c2ccccc2-c2nnn[nH]2)cc1 [Working Example 12, Methyl 2-butyl-5-chloro-1-[[2'-(1H-tetrazol-5-yl)biphenyl-4-yl]methyl]benzimidazole-7-carboxylate] | 50 to 70 | > 70 |  |  |  | 
16 | 82 | 50 |  |  | CCCCc1nc2cccc(C(=O)OCC)c2n1Cc1ccc(-c2ccccc2-c2nnn[nH]2)cc1 [Working Example 14, Ethyl 2-butyl-1-[[2'-(1H-tetrazol-5-yl)biphenyl-4-yl]methyl]benzimidazole-7-carboxylate] | 50 to 70 | > 70 |  |  |  | 
17 | 90 | 67 |  |  | CCCCc1nc2cccc(CO)c2n1Cc1ccc(-c2ccccc2-c2nnn[nH]2)cc1 [Working Example 16, 2-Butyl-7-hydroxymethyl-1-[[2'-(1H-tetrazol-5-yl)biphenyl-4-yl]methyl]benzimidazole] |  | > 70 |  |  |  | 
18 | 98 | 88 |  |  | CC(C)c1nc2cccc(C(=O)O)c2n1Cc1ccc(-c2ccccc2-c2nnn[nH]2)cc1 [Working Example 28, 2-Isopropyl-1-[[2'-(1H-tetrazol-5-yl)biphenyl-4-yl]methyl]benzimidazole-7-carboxylic acid] | 30 to 50 |  |  |  |  | 
19 |  |  | 87 | 60 | CCCCc1nc2cccc(C(=O)O)c2n1Cc1ccc(-c2ccccc2-c2nn[nH]n2)cc1 [Working Example 29, 2-Butyl-1-[[2'-(1H-tetrazol-5-yl)biphenyl-4-yl]methyl]benzimidazole-7-carboxylic acid 2.potassium salt] |  |  |  |  | +++ (+++ ≥70%) | +++ (+++ ≥70%)
20 | 92 | 78 |  |  | CCCc1nc2cccc(C(=O)OC)c2n1Cc1ccc(-c2ccccc2-c2nnn[nH]2)cc1 [Working Example 31, Methyl 2-propyl-1-[[2'-(1H-tetrazol-5-yl)biphenyl-4-yl)methyl]benzimidazole-7-carboxylate] | > 70 | > 70 |  |  |  | 
21 | 90 | 66 |  |  | CCCCc1nc2cccc(C(=O)OC)c2n1Cc1ccc(-c2ccccc2-c2nnn[nH]2)cc1 [Working Example 34, Methyl 2-butyl-1-[[2'-(1H-tetrazol-5-yl)biphenyl-4-yl]methyl]benzimidazole-7-carboxylate] | > 70 | > 70 |  |  |  | 
